# Entries after “also recorded” stand apart in the source; their conditions may differ.
# Columns and labels:
# [1] = tested on: A549 cells; test: cells; conditions: Homo sapiens, A549, 72 h, read-out: Cell proliferation IC50 ± SD
# [2] = tested on: HeLa cells; test: cells; conditions: Homo sapiens, 72 h, read-out: Cell proliferation IC50 ± SD
# [3] = tested on: MCF7 cells; test: cells; conditions: Homo sapiens, MCF7, 72 h, read-out: Cell proliferation IC50 ± SD
# [4] = tested on: A375 cells; test: cells; conditions: Homo sapiens, A-375, 72 h, read-out: Cell proliferation IC50 ± SD
# [5] = tested on: G-361 cells; test: cells; conditions: Homo sapiens, G-361, 72 h, read-out: Cell proliferation IC50 ± SD
# [6] = biological target: T1, human topoIIα (Homo sapiens, UniProt P11388); test: DNA relaxation catalyzed by human topoIIα; format: biochemical; conditions: ratio of DNA relaxation IC50 values
# [7] = biological target: human topoIIβ (Homo sapiens, UniProt Q02880); test: DNA relaxation catalyzed by human topoIIβ; format: biochemical
# [8] = biological target: T1, human topoIIα; test: DNA cleavage assay; format: biochemical; conditions: 0-200 µM compound
# [9] = tested on: relaxed pBR322 DNA; test: DNA intercalation; format: binding; conditions: 0-25 µM compound
# [10] = biological target: T1, human topoIIα; test: ATP hydrolysis; format: biochemical; conditions: 0-25 µM compound
# [11] = tested on: H2AX phosphorylation in HeLa cells; test: Immunodetection of H2AX phosphorylation; format: cell-based, human; conditions: 90 minutes, at IC50 concentration
# [12] = tested on: set of 47 proteins; test: Off-target safety profiling; conditions: tested at 2 µM
# [13] = biological target: hERG channel (Homo sapiens, UniProt Q12809); test: Off-target safety profiling, hERG channel; conditions: tested at 2 µM
# [14] = mouse, in vivo, ip, 10 mg/kg
Compound,IC50 [1],IC50 [2],IC50 [3],IC50 [4],specificity for topoIIα over topoIIβ [6],IC50 [7],inhibition of topoIIα-catalyzed ATP hydrolysis ([10]; in the absence of DNA),inhibition of topoIIα-catalyzed ATP hydrolysis ([10]; in the presence of DNA),brain penetration [14],IC50 [5],ability to increase enzyme-mediated DNA cleavage [8],DNA intercalation [9],phosphorylation of H2AX (reporter of DNA damage) [11],off-target activity (agonist and antagonist) on 47 proteins [12],activity vs the hERG channel [13]
"NC1CCc2nc(-c3ccncc3)nc(Nc3ccc(F)cc3)c2C1 (stereo not shown) [Compound 10, N4-(4-fluorophenyl)-2-(4-pyridyl)-5,6,7,8-tetrahydroquinazoline-4,6-diamine]",22.9 ± 6.5 µM,20.8 ± 4.5 µM,16 ± 0.5 µM,12.3 ± 1.8 µM,–,–,–,–,–,3 ± 0.7 µM,–,–,–,–,–
"COc1cccc(Nc2nc(-c3ccncc3)nc3c2CC(N)CC3)c1 (stereo not shown) [Compound 11, N4-(3-methoxyphenyl)-2-(4-pyridyl)-5,6,7,8-tetrahydroquinazoline-4,6-diamine]",18 ± 0.1 µM,17.2 ± 2.6 µM,15.8 ± 1.4 µM,15.1 ± 4.8 µM,–,–,–,–,–,6.6 ± 3.1 µM,–,–,–,–,–
"COc1cc([C@@H]2c3cc4c(cc3[C@@H](O[C@@H]3O[C@@H]5CO[C@@H](C)O[C@H]5[C@H](O)[C@H]3O)[C@H]3COC(=O)[C@H]23)OCO4)cc(OC)c1O [Etoposide, etoposide, reference compound]",2.4 ± 2 µM,–,8.9 ± 1.6 µM,0.5 ± 0.1 µM,–,–,–,–,–,3.8 ± 3 µM,–,–,–,–,–

# Continued, in another order:
IC50 [1],IC50 [2],IC50 [3],IC50 [4],specificity for topoIIα over topoIIβ [6],IC50 [7],inhibition of topoIIα-catalyzed ATP hydrolysis ([10]; in the absence of DNA),inhibition of topoIIα-catalyzed ATP hydrolysis ([10]; in the presence of DNA),brain penetration [14],Compound,IC50 [5],ability to increase enzyme-mediated DNA cleavage [8],DNA intercalation [9],phosphorylation of H2AX (reporter of DNA damage) [11],off-target activity (agonist and antagonist) on 47 proteins [12],activity vs the hERG channel [13]
19.4 ± 1.8 µM,17 ± 1.9 µM,13.9 ± 2.3 µM,9.9 ± 0.1 µM,–,–,–,–,–,"NC1CCc2nc(-c3ccncc3)nc(Nc3cccc(F)c3)c2C1 (stereo not shown) [Compound 1, N4-(3-fluorophenyl)-2-(4-pyridyl)-5,6,7,8-tetrahydroquinazoline-4,6-diamine]",1.4 ± 0.4 µM,–,–,–,–,–
23.3 ± 2.3 µM,17.1 ± 3.2 µM,14.2 ± 2.5 µM,10.7 ± 0.1 µM,–,–,–,–,–,"N[C@H]1CCc2nc(-c3ccncc3)nc(Nc3cccc(F)c3)c2C1 [Compound 3, (6R)-N4-(3-fluorophenyl)-2-(4-pyridyl)-5,6,7,8-tetrahydroquinazoline-4,6-diamine]",–,–,–,–,–,–
17.8 ± 0.6 µM,21.8 ± 4.6 µM,16.2 ± 2.6 µM,10.8 ± 0.1 µM,–,–,–,–,–,"N[C@@H]1CCc2nc(-c3ccncc3)nc(Nc3cccc(F)c3)c2C1 [Compound 4, (6S)-N4-(3-fluorophenyl)-2-(4-pyridyl)-5,6,7,8-tetrahydroquinazoline-4,6-diamine]",1.8 ± 0.6 µM,–,–,–,–,–
17.1 ± 8.7 µM,38.2 ± 9.1 µM,15.8 ± 1.3 µM,12.6 ± 0.7 µM,~ 50 fold,~100 µM,none,little ability to inhibit,able to reach the brain,"CN(C)c1ccc(Nc2nc(-c3ccncc3)nc3c2CC(N)CC3)cc1 (stereo not shown) [Compound 14, N4-[4-(dimethylamino)phenyl]-2-(4-pyridyl)-5,6,7,8-tetrahydroquinazoline-4,6-diamine]",8.1 ± 2.9 µM,no ability to increase levels of enzyme-mediated DNA cleavage,did not show this behavior; also recorded: does not intercalate into DNA,did not induce the phosphorylation of H2AX,no noteworthy activity,no noteworthy activity

# Source: PMC7668297 (Journal of medicinal chemistry, 2020)
